The source of these data is patent publication US20150075790A1, “OILFIELD BIOCIDE” (SCHLUMBERGER TECHNOLOGY CORPORATION, priority 2013, published 2015).

Holding throughout (type): physicochemical
In series [1] the test system is biological degradation of the concentrated guar fluids. The series can be described thus: Viscosity of highly concentrated guar fluids (water in water emulsion) after aging and dilution. As to conditions: ~200 ppt guar. Here is the method: The efficacy of 2-oxo-aldehyde such as MGO as a biocide was investigated on highly concentrated guar fluids (˜200 ppt) produced as a water in water emulsion. Comparative sample G and sample H were prepared without and with MGO respectively. After dilution of the concentrated fluids (1 part of sample to 4 parts of water) their rheological properties were measured after 0, 1, 2, 3, and 4 days. The data are shown graphically in FIG. 5. […] After three days of aging at 25° C., comparative sample G (without MGO) presents a much lower viscosity than its initial value at day 0, i.e. the fluid in comparative sample G has been degraded.

A short description of series [2]: Breaking schedule of crosslinked guar gel with oxidizer (breaker), viscosity at 66° C. As to conditions: shear rate 100 sec^-1, 66° C. (150° F.). Here is the method:
Two samples were evaluated to determine the impact of the MGO on the breaking schedule of a guar solution. The viscosity of each sample was measured at a shear rate of 100 sec^−1 while aging at 66° C. (150° F.) in the presence of an oxidizer (a breaker) to determine the effect 2-oxo-aldehyde such as MGO has on gel stability. The data is shown graphically in FIG. 4.

Series [3] is described as follows: Vortex closure time of boron-crosslinked guar solution, initially and after aging. Here is the method: The effects of the biocide on cross linking were evaluated. It is known that chemical contamination may have a detrimental impact on the cross linking of guar and other polymers. The impact of 2-oxo-aldehyde such as MGO on guar crosslinking was evaluated using the vortex closure time of a solution of guar. Vortex closure time is determined by charging a portion of the gel in a blender and measuring the time required for the vortex produced upon initiation of mixing the solution in the blender to close. […] In other words, a non-crosslinked or minimally crosslinked mixture with have an infinite vortex closure time. The higher the level of crosslinking, the shorter the vortex closure time once mixing is initiated.
A comparative sample E and a sample F were prepared by mixing 0.5 g of guar in 99.5 g water and mixing in the blender. Sample F further included 0.4 g MGO solution (0.16 g of MGO). No vortex closure occurred while mixing the uncrosslinked samples. Next, an amount of a Boron based crosslinking agent was added to each of the mixing samples and the initial vortex closure time was measured as shown in Table 4. The vortex closure time was then measured after 4 days of aging at room temperature (25° C.) in a non-sterile environment, and then again after 6 days of aging at 25° C. […] The data also confirm that biological degradation has a pronounced effect on cross-linking.

The subject of series [4] is bacteria or other biological agents known to degrade such fluids. The series can be described thus: Viscosity of guar fluid after aging at 25° C. in a non-sterile environment (biocidal activity on a guar system). As to conditions: relatively dilute concentrations; period of at least 6 days. The source says: For purposes herein, aging of a fluid (e.g., a solution or mixture) in a non-sterile environment for purposes of determining the inhibition of biological degradation of the fluid may include the steps of preparing and characterizing a fluid in a non-sterile environment followed by allowing the fluid to age in the non-sterile environment (or non-sterile container) which is, or which has been in fluid communication with an external environment such that the fluid has been exposed to the ambient environment which inherently contains bacteria or other biological agents known to degrade such fluids at room temperature (i.e., 25° C.), followed by characterizing the aged fluid in essentially the same way under the same conditions using the same method utilized to characterize the fluid initially. […] The biocidal activity of a 2-oxo-aldehyde having 3 or more carbon atoms such as methylglyoxal on a guar system was evaluated. […] Samples were maintained at room temperature and their viscosities were measured directly after their preparation (in a non-sterile environment) and then again determined after the different periods of time aging at 25° C. in a non-sterile environment as indicated. The viscosity of sample B was determined initially and then again after 1, 2, 3, and 6 days of aging at 25° C. in a non-sterile environment, i.e., in a covered beaker on a lab bench. […]

In the case of `CC(=O)C=O` [MGO, methylglyoxal], the “Prevention of biological degradation of concentrated guar fluids” value in series [1] is on record as “has prevented biological degradation”. For the same compound, the “Impact on the breaking schedule of a guar gel (FIG. 4)” value in series [2] is on record as “does not have a significant impact on the breaking schedule”. Also, the “Impact on the vortex closure time” value in series [3] (160 mg/L (0.4 gpt), even after several days) is listed as “does not have any impact on the vortex closure time”. For the same compound, the “Interference with crosslinking of the polymer” value in series [3] (boron based crosslinking agent, guar) is recorded as “does not prevent or interfere with the crosslinking”. Also, the “Effectiveness in reducing biological degradation of the guar fluid” value in series [4] is recorded as “effective in reducing biological degradation”.
